What was measured:
[1] = Trehalose tolerance test, serum trehalose in trehalase knockout mice; type: in vivo; conditions: trehalose IP 1 g/kg, trehalase knockout mice versus control mice
Description: To determine if inhibition of trehalase could enhance the efficacy of trehalose, a trehalase knockout mouse was generated. Control mice and trehalase knockout mice were then administered trehalose IP at 1 g/kg. Of 12 chimeric founders, a trehalose tolerance test was performed on n=3 non-targeted controls and n=5 chimeric mice. […] The serum concentration of trehalose at 30 minutes post-administration was measured.

[2] = oral; cited from earlier work
[3] = cited from earlier work
[4] = test system: Mice fed a Western diet; assay: Steatosis / body composition in mice fed a Western diet; type: in vivo
Description: Mice were fed a Western diet in combination with saline, sucrose or trehalose. The saline, sucrose or trehalose was administered orally and IP. Oral administration was provided in the cage water supply at 2% w/v in water (w/v=weight/volume). Additionally, 2 grams trehlose/kg mouse weight was injected IP. IP injection was 3 times/week. […] It was then determined if this significant reduction in body mass was due to fat mass or lean mass. […] (FIG. 2B). It was then determined the location of the increase in fat mass via tissue weights. […] Finally, the amount of liver triglycerides was measured in each group.

[5] = test system: ApoE deficient mice; assay: Atherosclerotic lesion size in ApoE deficient mice fed a Western diet; type: in vivo; conditions: trehalose oral and IP, 2 months post-treatment, relative to vehicle
Description: ApoE deficient mice were fed a Western diet with and without treatment with trehalose. Trehalose was administered oral and IP. At 2 months post-treatment the presence of atherosclerosis was evaluated.

[6] = test system: Mice fed a Western diet; assay: Insulin tolerance test; type: in vivo; conditions: compared to saline and sucrose, FIG. 3
Description: Additionally, an insulin tolerance test was performed in the presence of saline, sucrose or trehalose.

[7] = orally and intravenously, doses substantially higher than the intended therapeutic dose; cited from earlier work

OC[C@H]1O[C@H](O[C@H]2O[C@H](CO)[C@@H](O)[C@H](O)[C@H]2O)[C@H](O)[C@@H](O)[C@@H]1O [trehalose]
serum concentration of trehalose at 30 minutes post-administration [1]: significantly higher serum levels of trehalose
ingested trehalose absorbed into the blood stream [2]: Less than 0.5%
trehalose not absorbed into the blood stream [2]: Over 99.5%
oral amount that may cause diarrhea and bloating [3]: 40-50 gram per day
oral amount that frequently causes diarrhea, bloating and discomfort ([3]; humans): higher than 50 g a day
lean mass ([4]; FIG. 2B): not lean mass
liver triglycerides ([4]; FIG. 2D): significant reduction in liver triglycerides
body mass ([4]; Western diet, oral 2% w/v in water plus 2 g/kg IP 3 times/week, at 13-16 weeks): significantly decreased body mass
fat mass ([4]; at 16 weeks, relative to saline or sucrose): significant reduction in fat mass
subcutaneous (subQ) fat mass ([4]; tissue weights, FIG. 2C): reduction of fat mass in the subcutaneous (subQ) fat
tissue mass in the liver ([4]; tissue weights, FIG. 2C): significant reduction in tissue mass in the liver
atherosclerotic lesion size [5]: significantly reduced atherosclerotic lesion size
insulin resistance (insulin tolerance test) [6]: less insulin resistance was observed
safety and toxicity [7]: found to be safe

— US20190038650A1, “COMPOSITIONS AND METHODS FOR THE TREATMENT OF ATHEROSCLEROSIS AND HEPATOSTEATOSIS AND OTHER DISEASES” (priority 2016, published 2019)
